# According to patent US11234971B2, “Methods of treating cancer comprising administration of a glucocorticoid receptor modulator and a cancer chemotherapy agent” (Corcept Therapeutics Incorporated, priority 2018, dated 2022):
# Key:
# [1] = test system: MIA PaCa-2 xenograft; experiment: MIA PaCa-2 xenograft tumor growth in immunodeficient mice; type: in vivo
# Excerpt: The present example, Example 3, provides results of administration of the glucocorticoid receptor modulator relacorilant to cancerous cells. […] The MIA PaCa-2 xenograft model uses MIA PaCa-2 cell-line cells (pancreatic tumor cells derived from a pancreatic adenocarcinoma from a patient) engrafted into immunodeficient mice. The ovarian OVCAR-5 cell line is derived from a human epithelial carcinoma of the ovary, and was established from ascitic fluid obtained (prior to cytotoxic treatment) from a patient with progressive ovarian adenocarcinoma.
# FIG. 10A. Relacorilant sensitizes the MIA PaCa-2 xenograft to paclitaxel. Tumor volume of PaCa-2 xenograft tumors implanted in immunodeficient mice is shown as a function of time (days) after implantation in the presence of vehicle (filled circles), paclitaxel (7.5 mg/kg; filled squares), relacorilant alone (upwardly pointing triangles), and relacorilant+7.5 mg/kg paclitaxel (downwardly pointing triangles). 7.5 mg/kg paclitaxel was administered three times (at the days indicated by the dashed vertical lines, indicating days 8, 12, and 16 following tumor implantation into the mice).
# FIG. 10B. Relacorilant with Paclitaxel Reduces MIA PaCa-2 xenograft Tumor Volume. Initial tumor volume of PaCa-2 xenograft tumors implanted in immunodeficient mice was less than 400 cubic millimeters (mm^3). […] Tumor size progression is thus indicated by lines descending from the top (100%) value. The tumor-bearing mice were treated with vehicle, relacorilant (30 mg/kg every day), paclitaxel (three doses of 7.5 mg/kg paclitaxel, one dose administered on each of the days indicated in FIG. 10A), and the combination relacorilant (30 mg/kg every day) with paclitaxel (7.5 mg/kg doses of paclitaxel each administered on days 8, 12, and 16 post implantation). […] Xenograft tumor growth was slowed by combined relacorilant+paclitaxel as compared to either paclitaxel alone or relacorilant alone. Relacorilant thus enhanced sensitivity to paclitaxel in the pancreatic MIA PaCa-2 xenograft model.
# [2] = test system: GR-controlled genes; experiment: Whole blood mRNA expression (NanoString) in cancer patients of study NCT02762981, baseline vs C1D15; type: in vivo, human; settings: for expression levels of COX2, DUSP1, GSK3b, MCL-1, PIK3CG and RGS-2 (mRNA): 40 cancer patients (FIG. 5B); for genes downregulated in whole blood, baseline to C1D15: 800-gene panel, relacorilant+nab-paclitaxel; for enrichment of genes shared in the sets induced by prednisone and suppressed by relacorilant / genes shared in the sets induced by prednisone and suppressed by relacorilant: top 200 genes each
# Experimental: Blood was collected at baseline, prior to administration of relacorilant or nab-paclitaxel. Blood was also drawn in the morning, pre-dose, on cycle 1, day 15. Blood (in the amount of 2.5 milliLiters (mL)) was drawn into a PAXGene blood RNA tube (Qiagen) using a butterfly needle. The tube was sealed and gently inverted 10 times. The tube was frozen in dry ice and stored at −80° C. until RNA extraction.
# Paired baseline and cycle 1, day 15 (C1D15) specimens were thawed and processed in the same batch. RNA was isolated using the PAXgene Blood RNA kit (Qiagen) using the protocol recommended by the manufacturer. RNA yield was quantified using a NanoDrop ND-2000 spectrophotometer (ThermoFisher Scientific). RNA was assessed using a custom 33-gene panel after mRNA sample preparation and hybridization using NanoString nCounter XT Assay, following the operation and maintenance instructions for the NanoString prep station and digital analyzer. Specific RNA transcripts were quantified using a Nanostring nCounter FLEX instrument (NanoString Technologies) and analyzed using nSolver 3.0. (Nanostring Technologies, Seattle Wash., USA).
# Housekeeping gene pairwise correlations were determined using nSolver 3.0 (NanoString Technologies). Test genes were normalized to the housekeeping genes HPRT1, PPIB, TRAP1, EEF1A1, and TBP. Change from baseline was calculated using the RNA counts at baseline and cycle 1, day 15 as follows: Change from Baseline=(C1D15−baseline)/(baseline) Results Housekeeping Genes Selection
# Calculations For FIG. 6, the normalized counts of 10 GR-controlled genes were averaged. Change from baseline of these averaged values was calculated per patient using the formula: Percent change from baseline=((average value at C1D15)−(average value at baseline))/(average value at baseline)*100Gene set enrichment statistics were calculated using the program available at the URL: Nemates.org/MA/progs/overlap_stats_prog.html
# RNA isolation and quantification RNA was assessed using a custom 800-gene panel after mRNA sample preparation and hybridization using NanoString nCounter Assay, following the operation and maintenance instructions for the NanoString prep station and digital analyzer. The 800 gene panel was comprised of the Nanostring 10360™ panel plus the following 10 custom probes:
# Data normalization and analysis Housekeeping gene pairwise correlations were determined using advanced analysis in nSolver 3.0 (NanoString Technologies). Test genes were normalized to the housekeeping genes selected by geNORM. […]
# [3] = patients with progressive disease
smiles,measurement,setting,value
"Cn1cc(S(=O)(=O)N2CCC3=Cc4c(cnn4-c4ccc(F)cc4)C[C@]3(C(=O)c3cc(C(F)(F)F)ccn3)C2)cn1 [relacorilant, (R)-(1-(4-fluorophenyl)-6-((1-methyl-1H-pyrazol-4-yl)sulfonyl)-4,4a,5,6,7,8-hexahydro-1H-pyrazolo[3,4-g]isoquinolin-4a-yl)(4-(trifluoromethyl)pyridin-2-yl)methanone]",time to progression (fraction of tumors whose volume remained below 400 mm^3),"[1]; relacorilant (30 mg/kg every day) added to paclitaxel 7.5 mg/kg days 8, 12, 16, compared to paclitaxel alone, p<0.0001",delayed the time to progression
same,tumor growth (tumor volume over time),"[1]; relacorilant added to 7.5 mg/kg paclitaxel (days 8, 12, 16), compared to paclitaxel alone, p<0.0001",delayed tumor growth
same,time to progression (fraction of tumors whose volume remained below 400 mm^3),"[1]; single agent, relacorilant 30 mg/kg every day or paclitaxel 7.5 mg/kg on days 8, 12, 16",nearly superimposed on the vehicle line
same,"expression levels of COX2, DUSP1, GSK3b, MCL-1, PIK3CG, RGS-2, SGK1 and STAT3 (mRNA)","[2]; 21 cancer patients (FIG. 5A), patients who derived benefit from relacorilant+nab-paclitaxel",decreased as compared to baseline
same,"expression levels of COX2, DUSP1, GSK3b, MCL-1, PIK3CG, RGS-2, SGK1 (mRNA)","[2]; 21 cancer patients (FIG. 5A), patients whose cancer progressed",did not exhibit decreased levels
same,"expression levels of COX2, DUSP1, GSK3b, MCL-1, PIK3CG and RGS-2 (mRNA)",[2]; patients who derived benefit from relacorilant+nab-paclitaxel,decreased as compared to baseline
same,"expression levels of COX2, DUSP1, GSK3b, MCL-1, PIK3CG and RGS-2 (mRNA)",[2]; patients whose cancer progressed,did not exhibit decreased levels
same,"genes downregulated in whole blood, baseline to C1D15",[2]; PD patients,30 genes
same,"genes downregulated in whole blood, baseline to C1D15",[2]; SD/PR/CR patients,92 genes
same,"normalized DUSP1 mRNA counts, baseline vs cycle 1 day 15","[2]; all patients, relacorilant + nab-paclitaxel, paired t-test p=0.065",not significantly different
same,"normalized DUSP1 mRNA counts, baseline vs cycle 1 day 15","[2]; patients experiencing benefit (SD, PR, CR), relacorilant + nab-paclitaxel, paired t-test p=0.015",significant decrease
same,"decrease in DUSP1 counts, baseline vs cycle 1 day 15","[2]; patients with progressive disease, relacorilant + nab-paclitaxel",not observed
same,enrichment of genes shared in the sets induced by prednisone and suppressed by relacorilant,[2]; patients who benefited,2.2 fold
same,genes shared in the sets induced by prednisone and suppressed by relacorilant,"[2]; patients who benefited, p=3×10^−30",116 genes
same,enrichment of genes shared in the sets induced by prednisone and suppressed by relacorilant,[2]; [3],0.7 fold
same,genes shared in the sets induced by prednisone and suppressed by relacorilant,[2]; [3],38 genes
